Laboratory results as given in publication PMC7456963, “HPLC-Based Activity Profiling for Antiprotozoal Compounds in Croton gratissimus and Cuscuta hyalina” (Frontiers in Pharmacology, 2020).
Read-outs that look alike come from different tables or passages of the source.

Columns and labels:
[1] = test system: L. donovani amastigotes in mouse peritoneal macrophages; assay: Activity against Leishmania donovani intramacrophage amastigotes (high-content imaging); type: cell-based; conditions: Leishmania donovani, Peritoneal macrophage, 96 h, read-out: IC50 L. donovani Intramacrophage
Experimental: (§1) Macrophages were isolated from the mouse (CDI) peritoneal cavity ([Zhang et al., 2008]) using 2% starch solution as eliciting agent injected 2 day prior to cell harvest. Animal work was carried out according to the rules and regulations for the protection of animal rights (“Tierschutzverordnung”) of the Swiss “Bundesamt für Veterinärwesen” (License number 2374). Mouse peritoneal macrophages (4 × 10^4 in 100 µL RPMI 1640 medium with 10% heat-inactivated FBS) were seeded into wells of a 96-well plate. After 24 h, 2 × 10^5 amastigote L. donovani in 100 µL were added. The amastigotes were taken from an axenic amastigote culture grown at pH 5.4. The medium containing free amastigote forms was removed after 24 h and replaced with fresh medium. The washing step was repeated and afterward the serial drug dilution was prepared with at least 6 dilution steps. Compounds were dissolved in DMSO at 10 mg/ml and further diluted in medium. After 96 h of incubation at 37°C under a 5% CO2 atmosphere, the medium was removed, and cells were fixed by adding 50 µl 4% formaldehyde solution followed by a staining with a 5 µM DRAQ5 solution. Plates were imaged in ImageXpress XLS (MD) microscope using a 20× air objective (635 nm excitation: 690/50 emission). 9 images were collected per well. Automated image analysis was performed with a script developed on Meta Xpress Software (MD). Three outputs were provided for each well: i) number of host cell nuclei; ii) numbers of infected and non-infected host cells; iii) number of parasite nuclei per infected host cell. The IC50 values were calculated based on the infection rate and the numbers of intracellular amastigotes. The cytotoxicity to macrophages was determined in parallel, and IC50 values were calculated based on the numbers of surviving, uninfected macrophages. Miltefosine was used as control. Assays were performed in two independent replicates at least.

[2] = test system: T. b. rhodesiense STIB 900 bloodstream forms; assay: Activity against Trypanosoma brucei rhodesiense STIB900 (resazurin); type: cell-based; conditions: for Selectivity index (SI): IC50 in L6 cells divided by IC50 in T. b. rhodesiense: L6 cells vs T. b. rhodesiense STIB 900; for IC50: Trypanosoma brucei, 70 h, STIB 900 bloodstream forms, 70 h + resazurin, mean ± absolute deviation
Experimental: The stock was originally isolated from a patient and adapted to axenic culture conditions after several mouse passages and cloned. Minimum Essential Medium (50 µl) supplemented with 25 mM HEPES, 1 g/L additional glucose, 1% MEM non-essential amino acids (100×), 0.2 mM 2-mercaptoethanol, 1 mM Na-pyruvate ([Baltz et al., 1985]) and 15% heat inactivated horse serum was added to each well of a 96-well microtiter plate. Serial drug dilutions of eleven 3-fold dilution steps covering a range from 100 to 0.002 μg/ml were prepared. Then 4 × 10^3 bloodstream forms of T. b. rhodesiense STIB 900 in 50 µL were added to each well and the plate incubated for 70 h at 37°C and under a 5% CO2 atmosphere. 10 µL resazurin solution (resazurin, 12.5 mg in 100 ml double-distilled water) was then added to each well and incubation continued for a further 2–4 h ([Räz et al., 1997]). Plates were read with a Spectramax Gemini XS microplate fluorometer (Molecular Devices Cooperation, Sunnyvale, CA, USA) using an excitation wavelength of 536 nm and an emission wavelength of 588 nm. […] Melarsoprol (Arsobal Sanofi-Aventis, received from WHO) was used as control. Assays were performed in two independent replicates at least.

[3] = Cytotoxicity to macrophages determined in parallel to the intramacrophage assay; type: cell-based; conditions: CDI, surviving, uninfected mouse peritoneal macrophages
Experimental: as §1

[4] = test system: L. donovani strain MHOM/ET/67/L82 axenic amastigotes; assay: Activity against Leishmania donovani axenic amastigotes (resazurin); type: cell-based; conditions: for Selectivity index (SI): IC50 in L6 cells divided by IC50 in L. donovani axenic amastigotes: L6 cells vs axenic L. donovani; for IC50: Leishmania donovani, mean ± absolute deviation, at least two replicates
Experimental: Amastigotes of L. donovani strain MHOM/ET/67/L82 were grown under an atmosphere of 5% CO2 in air in axenic culture at 37°C in SM medium ([Cunningham, 1977]) at pH 5.4 supplemented with 10% heat-inactivated fetal bovine serum. 50 µL of culture medium was added in the wells of a 96-well plate and serial drug dilutions of eleven three-fold dilution steps covering a final range from 100 to 0.002 μg/ml were prepared. 50 µL culture medium with 2 × 10^5 amastigotes from axenic culture were added to each well. After 70 h of incubation the plates were inspected under an inverted microscope to assure growth of the controls and sterile conditions. 10 μl of resazurin (12.5 mg resazurin dissolved in 100 ml distilled water) were added to each well and the plates incubated for another 2 h. Then the plates were read with a Spectramax Gemini XS microplate fluorometer (Molecular Devices Cooperation, Sunnyvale, CA, USA) using an excitation wavelength of 536 nm and an emission wavelength of 588 nm. Data were analyzed using the software Softmax Pro (Molecular Devices Cooperation, Sunnyvale, CA, USA). Decrease of fluorescence (= inhibition) was expressed as percentage of the fluorescence of untreated control cultures and plotted against the drug concentrations. From the sigmoidal inhibition curves the IC50 values were calculated. Miltefosine was used as positive control drug. Assays were performed in two independent replicates at least.

[5] = test system: P. falciparum NF54 erythrocytic stages; assay: Activity against Plasmodium falciparum (3H-hypoxanthine incorporation); type: cell-based; conditions: for Selectivity index (SI): IC50 in L6 cells divided by IC50 in P. falciparum: L6 cells vs P. falciparum NF54; for IC50: mean ± absolute deviation
Experimental: In vitro activity against the erythrocytic stages of P. falciparum was determined using a ^3H-hypoxanthine incorporation assay ([Desjardins et al., 1979]), using the drug sensitive NF54 strain ([Ponnudurai et al., 1981]). Compounds were dissolved in DMSO at 10 mg/ml and further diluted in medium before addition to parasite cultures incubated in RPMI 1640 medium without hypoxanthine, supplemented with HEPES (5.94 g/L), NaHCO3 (2.1 g/L), neomycin (100 U/ml), Albumax^R (5 g/L), and washed human red cells A^+ at 2.5% haematocrit (0.3% parasitemia). Serial drug dilutions of 11 three-fold dilution steps covering a range from 100 to 0.002 μg/ml were prepared. The 96-well plates were incubated in a humidified atmosphere at 37°C; 4% CO2, 3% O2, 93% N2. After 48 h, 50 μl of ^3H-hypoxanthine (=0.5 μCi) was added to each well of the plate. The plates were incubated for a further 24 h under the same conditions. The plates were then harvested with a Betaplate™ cell harvester (Wallac, Zurich, Switzerland), the red blood cells transferred onto a glass fibre filter, and lysed with distilled water. The dried filters were inserted into a plastic foil with 10 ml of scintillation fluid and counted in a Betaplate™ liquid scintillation counter (Wallac, Zurich, Switzerland). IC50 values were calculated from sigmoidal inhibition curves by linear regression using Microsoft Excel. Chloroquine (Sigma C6628) was used as control. Assays were performed in two independent replicates at least.

[6] = test system: L-6 cells (rat skeletal myoblasts); assay: In vitro cytotoxicity with L-6 cells (resazurin); type: cell-based; conditions: 70 h + 2 h resazurin, mean ± absolute deviation
Experimental: (§2) Assays were performed in 96-well microtiter plates, each well containing 100 µl of RPMI 1640 medium supplemented with 1% L-glutamine (200 mM) and 10% fetal bovine serum, and 4000 L-6 cells (a primary cell line derived from rat skeletal myoblasts) ([Ahmed et al., 1994]). Serial drug dilutions of 11 three-fold dilution steps covering a range from 100 to 0.002 μg/ml were prepared 24 h post seeding L-6 cells. The plates were incubated for 70 h and inspected under an inverted microscope to assure growth of the controls and sterile conditions. 10 µl of resazurin was then added to each well and the plates incubated for another 2 h. Then the plates were read with a Spectramax Gemini XS microplate fluorometer (Molecular Devices Cooperation, Sunnyvale, CA, USA) using an excitation wavelength of 536 nm and an emission wavelength of 588 nm. The IC50 values were calculated by linear regression and four-parameter logistic regression from the sigmoidal dose inhibition curves using SoftmaxPro software (Molecular Devices Cooperation, Sunnyvale, CA, USA). Podophyllotoxin (Sigma P4405) was used as positive control. All assays were performed in two independent replicates at least. Activities of all compounds were expressed in µM using the formula: […]

[7] = In vitro cytotoxicity with L-6 cells (resazurin); type: cell-based, rat; conditions: rat; L6 cells, 70 h + 2 h resazurin; mean ± absolute deviation
Experimental: as §2

[8] = amastigotes in mouse peritoneal macrophages
[9] = pH 5.4, axenic amastigotes, MHOM/ET/67/L82, pH 5.4, 70 h + 2 h resazurin, read-out: IC50 L. donovani Axenic
[10] = Plasmodium falciparum, NF54, 72 h, read-out: IC50 P. falciparum, NF54 drug sensitive strain, erythrocytic stages, 72 h

Compound | IC50 [1, 8] [µM] | Selectivity index (SI): IC50 in L6 cells divided by IC50 in T. b. rhodesiense [2] | IC50 [2] [µM] | IC50 at 96 h [3] [µM] | Selectivity index (SI): IC50 in L6 cells divided by IC50 in L. donovani axenic amastigotes [4] | IC50 [4, 9] [µM] | Selectivity index (SI): IC50 in L6 cells divided by IC50 in P. falciparum [5] | IC50 ([5]; NF54 drug sensitive strain, erythrocytic stages, 72 h, read-out: IC50 P. falciparum) [µM] | IC50 ([5]; Plasmodium falciparum, NF54, 72 h, NF54 drug sensitive strain, erythrocytic stages, 72 h, read-out: IC50 P. falciparum) [µM] | IC50 L6 cells (cytotoxicity) [6] | IC50 [1] [µM] | IC50 ([4]; pH 5.4, read-out: IC50 L. donovani Axenic, axenic amastigotes, MHOM/ET/67/L82, pH 5.4, 70 h + 2 h resazurin) [µM] | IC50 [5, 10] [µM] | IC50 at 70 h [7] [µM] | IC50 ([5]; read-out: IC50 P. falciparum, NF54 drug sensitive strain, erythrocytic stages, 72 h) [µM]
COc1ccc(-c2oc3cc(O)cc(O)c3c(=O)c2OC)cc1O [Compound 5, Quercetin-3,4′-dimethylether] | > 33.3 | 2.9 | 6.6 ± 3.2 | 42.7 ± 12.1 | 1.3 | 15 to 22 | 1.1 | 18.2 ± 6.7 | < 20 | significant cytotoxicity |  |  |  |  | 
COc1ccc(C[C@@H]2c3cc(OC)c(OC)cc3CCN2C)cc1O [Compound 8, Laudanine] |  |  | > 80 | > 200 |  |  |  |  |  |  | > 292 | > 150 | 78.6 ± 0.4 | 292 | 
COc1ccc(CC2c3cc(OC)c(OC)cc3CCN2C)cc1OC (centres unmarked) [Compound 9, Laudanosine] | > 186 |  | > 80 | > 245 |  | > 150 |  |  |  |  |  |  | 76.1 ± 21.6 | 280 | 
COc1cc(-c2oc3cc(O)cc(O)c3c(=O)c2O)ccc1O [Compound 11, Isorhamnetin] | > 210 | 5.0 | 25.9 ± 5.4 | > 199 | 6.0 | 21.7 ± 7.9 | 6.0 |  |  |  |  |  | ~20 | 130 ± 58.7 | 21.6 ± 0.7
